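Tested at 5 concentrations; 48 h exposure; 96-well plates; endpoints linearly interpolated, else capped at highest concentration. TGI denotes the concentration required for complete inhibition of growth.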
Key:
Assay in all cases: NCI tumour cell line growth inhibition, 48 h
OVCAR-4 ovarian = tested on: OVCAR-4 ovarian
SF-539 CNS = tested on: SF-539 CNS
LOX IMVI melanoma = tested on: LOX IMVI melanoma
SW-620 colon = tested on: SW-620 colon
KM20L2 colon = tested on: KM20L2 colon
SF-295 CNS = tested on: SF-295 CNS
UO-31 renal = tested on: UO-31 renal
HT29 colon = tested on: HT29 colon
COLO 205 colon = tested on: COLO 205 colon
SK-MEL-28 melanoma = tested on: SK-MEL-28 melanoma
MALME-3M melanoma = tested on: MALME-3M melanoma
HL-60(TB) leukemia = tested on: HL-60(TB) leukemia
SK-MEL-5 melanoma = tested on: SK-MEL-5 melanoma
NCI-H23 lung = tested on: NCI-H23 lung
DMS 114 small cell lung = tested on: DMS 114 small cell lung
NCI-H522 lung = tested on: NCI-H522 lung
HOP-62 NSCLC = tested on: HOP-62 NSCLC
U251 CNS = tested on: U251 CNS
SK-MEL-2 melanoma = tested on: SK-MEL-2 melanoma
MOLT-4 leukemia = tested on: MOLT-4 leukemia
CAKI-1 renal = tested on: CAKI-1 renal
HCC-2998 colon = tested on: HCC-2998 colon
NCI-H226 lung = tested on: NCI-H226 lung
OVCAR-8 ovarian = tested on: OVCAR-8 ovarian
HOP-18 NSCLC = tested on: HOP-18 NSCLC
KM12 colon = tested on: KM12 colon
RPMI-8226 leukemia = tested on: RPMI-8226 leukemia
MCF7 breast = tested on: MCF7 breast
SK-OV-3 ovarian = tested on: SK-OV-3 ovarian
SNB-75 CNS = tested on: SNB-75 CNS
SNB-78 CNS = tested on: SNB-78 CNS
HOP-92 NSCLC = tested on: HOP-92 NSCLC
DMS 273 small cell lung = tested on: DMS 273 small cell lung
EKVX NSCLC = tested on: EKVX NSCLC
RXF 393 renal = tested on: RXF 393 renal
UACC-62 melanoma = tested on: UACC-62 melanoma
A498 renal = tested on: A498 renal
DLD-1 colon = tested on: DLD-1 colon
UACC-257 melanoma = tested on: UACC-257 melanoma
SN12C renal = tested on: SN12C renal
XF 498 CNS = tested on: XF 498 CNS
SN12K1 renal = tested on: SN12K1 renal
CCRF-CEM leukemia = tested on: CCRF-CEM leukemia
IGROV1 ovarian = tested on: IGROV1 ovarian
SNB-19 CNS = tested on: SNB-19 CNS
NCI/ADR-RES ovarian = tested on: NCI/ADR-RES ovarian
NCI-H460 lung = tested on: NCI-H460 lung
HCT-15 colon = tested on: HCT-15 colon
HCT-116 colon = tested on: HCT-116 colon
OVCAR-3 ovarian = tested on: OVCAR-3 ovarian
OVCAR-5 ovarian = tested on: OVCAR-5 ovarian
A549 NSCLC = tested on: A549 NSCLC
SF-268 CNS = tested on: SF-268 CNS
M19-MEL melanoma = tested on: M19-MEL melanoma
K-562 leukemia = tested on: K-562 leukemia
P388 leukemia = tested on: P388 leukemia

CN(C)CCN=C1c2ccccc2-c2c(=O)n(CCN(C)C)c(O)c3cccc1c23
TGI (OVCAR-4 ovarian): 0.154 µM
TGI (SF-539 CNS): 1.82 µM
TGI (LOX IMVI melanoma): 0.185 µM
TGI (SW-620 colon): 0.493 µM
TGI (KM20L2 colon): 0.783 µM
TGI (SF-295 CNS): 0.605 µM
TGI (UO-31 renal): 3.97 µM
TGI (HT29 colon): 0.257 µM
TGI (COLO 205 colon): 0.27 µM
TGI (SK-MEL-28 melanoma): 0.862 µM
TGI (MALME-3M melanoma): 1.6 µM
TGI (HL-60(TB) leukemia): 0.592 µM
TGI (SK-MEL-5 melanoma): 1.95 µM
TGI (NCI-H23 lung): 0.258 µM
TGI (DMS 114 small cell lung): 0.499 µM
TGI (NCI-H522 lung): 0.315 µM
TGI (HOP-62 NSCLC): 4.04 µM
TGI (U251 CNS): 0.752 µM
TGI (SK-MEL-2 melanoma): 0.857 µM
TGI (MOLT-4 leukemia): 28 µM
TGI (CAKI-1 renal): 2.7 µM
TGI (HCC-2998 colon): 0.494 µM
TGI (NCI-H226 lung): 3.35 µM
TGI (OVCAR-8 ovarian): 0.433 µM
TGI (HOP-18 NSCLC): 0.603 µM
TGI (KM12 colon): 1.25 µM
TGI (RPMI-8226 leukemia): 12.9 µM
TGI (MCF7 breast): 0.944 µM
TGI (SK-OV-3 ovarian): 1.4 µM
TGI (SNB-75 CNS): 0.487 µM
TGI (SNB-78 CNS): 1.73 µM
TGI (HOP-92 NSCLC): 0.563 µM
TGI (DMS 273 small cell lung): 0.508 µM
TGI (EKVX NSCLC): 0.987 µM
TGI (RXF 393 renal): 0.085 µM
TGI (UACC-62 melanoma): 0.734 µM
TGI (A498 renal): 2.19 µM
TGI (DLD-1 colon): 0.217 µM
TGI (UACC-257 melanoma): 1.25 µM
TGI (SN12C renal): 0.674 µM
TGI (XF 498 CNS): 0.922 µM
TGI (SN12K1 renal): 0.851 µM
TGI (CCRF-CEM leukemia): 10.5 µM
TGI (IGROV1 ovarian): 0.616 µM
TGI (SNB-19 CNS): 1.73 µM
TGI (NCI/ADR-RES ovarian): 0.289 µM
TGI (NCI-H460 lung): 0.339 µM
TGI (HCT-15 colon): 0.245 µM
TGI (HCT-116 colon): 0.432 µM
TGI (OVCAR-3 ovarian): 0.689 µM
TGI (OVCAR-5 ovarian): 0.794 µM
TGI (A549 NSCLC): 0.461 µM
TGI (SF-268 CNS): 0.578 µM

CCCCCOc1ccc(C=Nc2ccc(-c3ccc(N=Cc4ccc(OCCCCC)cc4)c(OC)c3)cc2OC)cc1
TGI (OVCAR-4 ovarian): > 31.6 µM
TGI (SF-539 CNS): > 100 µM
TGI (LOX IMVI melanoma): > 100 µM
TGI (SW-620 colon): > 100 µM
TGI (KM20L2 colon): > 100 µM
TGI (SF-295 CNS): > 100 µM
TGI (UO-31 renal): > 100 µM
TGI (HT29 colon): > 100 µM
TGI (COLO 205 colon): > 100 µM
TGI (SK-MEL-28 melanoma): > 100 µM
TGI (MALME-3M melanoma): > 100 µM
TGI (HL-60(TB) leukemia): > 100 µM
TGI (SK-MEL-5 melanoma): > 100 µM
TGI (NCI-H23 lung): > 100 µM
TGI (DMS 114 small cell lung): > 100 µM
TGI (NCI-H522 lung): > 100 µM
TGI (HOP-62 NSCLC): > 100 µM
TGI (U251 CNS): > 100 µM
TGI (SK-MEL-2 melanoma): > 100 µM
TGI (MOLT-4 leukemia): > 100 µM
TGI (M19-MEL melanoma): > 100 µM
TGI (HCC-2998 colon): > 100 µM
TGI (NCI-H226 lung): > 100 µM
TGI (OVCAR-8 ovarian): > 100 µM
TGI (HOP-18 NSCLC): > 100 µM
TGI (KM12 colon): > 100 µM
TGI (RPMI-8226 leukemia): > 100 µM
TGI (MCF7 breast): > 100 µM
TGI (SK-OV-3 ovarian): > 100 µM
TGI (SNB-75 CNS): > 100 µM
TGI (SNB-78 CNS): > 100 µM
TGI (HOP-92 NSCLC): > 100 µM
TGI (DMS 273 small cell lung): > 100 µM
TGI (EKVX NSCLC): > 100 µM
TGI (RXF 393 renal): > 100 µM
TGI (UACC-62 melanoma): > 100 µM
TGI (A498 renal): > 100 µM
TGI (DLD-1 colon): > 100 µM
TGI (UACC-257 melanoma): > 100 µM
TGI (SN12C renal): > 100 µM
TGI (XF 498 CNS): > 100 µM
TGI (SN12K1 renal): > 100 µM
TGI (CCRF-CEM leukemia): > 100 µM
TGI (IGROV1 ovarian): > 100 µM
TGI (K-562 leukemia): > 31.6 µM
TGI (SNB-19 CNS): > 100 µM
TGI (NCI/ADR-RES ovarian): > 100 µM
TGI (NCI-H460 lung): > 100 µM
TGI (HCT-15 colon): > 100 µM
TGI (P388 leukemia): > 100 µM
TGI (HCT-116 colon): > 100 µM
TGI (OVCAR-3 ovarian): > 100 µM
TGI (OVCAR-5 ovarian): > 100 µM
TGI (A549 NSCLC): > 100 µM
TGI (SF-268 CNS): > 100 µM
